The text below walks through data of US20260034115A1, “YAP1 INHIBITORS” (H. LEE MOFFITT CANCER CENTER AND RESEARCH INSTITUTE, INC., priority 2021, published 2026).

One experiment addresses Yap1:Oct4 interaction (Homo sapiens, UniProt P46937). The experiment is described as follows: Yap1:Oct4 interaction (in vitro binding assay). The conditions noted are these: FIG. 1.
Another experiment concerns PC9luc cells. The experiment is described as follows: MTT IC50 on PC9 cells expressing a luciferase gene. Format: cell-based.
The test system of a further experiment is PC9luc-OSIMR cells. Nature of the experiment: MTT IC50 on PC9-Osimertinib resistant cells expressing a luciferase gene. Format: cell-based.
A further experiment has as its system PC9-OSIMR cells. Nature of the experiment: MTT IC50 on Osimertinib-resistant PC9 cells. The class given is cell-based.
In another experiment the test system is PC9 cells. The experiment is described as follows: MTT IC50 on parental PC9 cells. Format: cell-based.

Like-named read-outs stand apart in the source and are kept apart here.

Chain of Yap1:Oct4 interaction (P46937 whole entry): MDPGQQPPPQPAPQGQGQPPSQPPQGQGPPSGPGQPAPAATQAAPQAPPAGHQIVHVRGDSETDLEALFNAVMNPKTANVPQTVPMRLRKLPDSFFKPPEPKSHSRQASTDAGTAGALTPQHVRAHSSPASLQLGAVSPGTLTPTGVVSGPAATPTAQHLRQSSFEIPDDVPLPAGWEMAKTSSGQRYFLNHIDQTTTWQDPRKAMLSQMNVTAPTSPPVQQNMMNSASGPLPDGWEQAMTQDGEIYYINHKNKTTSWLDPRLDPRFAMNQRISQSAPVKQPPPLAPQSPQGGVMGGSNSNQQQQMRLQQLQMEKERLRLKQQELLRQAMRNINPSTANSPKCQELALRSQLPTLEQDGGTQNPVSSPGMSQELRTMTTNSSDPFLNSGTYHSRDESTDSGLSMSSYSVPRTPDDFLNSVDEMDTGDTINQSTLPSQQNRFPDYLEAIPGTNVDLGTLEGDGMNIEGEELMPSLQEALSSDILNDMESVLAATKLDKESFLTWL

For `COC(=O)[C@H](Cn1cc(-c2ccccc2)cn1)NC(=O)CC1CCN(C(=O)CCc2cccc(F)c2)CC1` [SR6-096], the IC50 (as a rule, the midpoint of a concentration-inhibition curve) on Yap1:Oct4 interaction was found to be 870 ± 320 nM.
With `N#Cc1ccc(CCCN2CCC(CC(=O)Nc3ccc(OCc4ccccc4)cc3)CC2)cc1` [SR7-061], the half-inhibitory concentration (IC50) at Yap1:Oct4 interaction worked out at 1300 nM.
`O=C(CC1CCN(CCCc2ccc(Cl)c(Cl)c2)CC1)Nc1ccc(OCc2ccccc2)cc1` [SR7-053]: the IC50 in the experiment on PC9luc cells was determined as 865 nM; with PC9luc-OSIMR cells, 3350 nM; at Yap1:Oct4 interaction it was 564 nM; in the experiment with PC9-OSIMR cells (PC9-OSIMR, read-out: IC50 MTT), 3900 nM; with PC9 cells (PC9, read-out: IC50 MTT), 1160 nM.
Take `COC(=O)[C@H](Cc1cccc(OC)c1)NC(=O)CC1CCN(CCC(C)(C)C)CC1` [SR7-055]: the IC50 on Yap1:Oct4 interaction was above 40000 nM.
In turn, `COC(=O)[C@H](Cc1ccc(OCc2ccccc2)cc1)NC(=O)CC1CCN(CCCc2ccc(F)c(C#N)c2)CC1` [SR6-170] gave an IC50 on Yap1:Oct4 interaction of 780 ± 150 nM.
`COC(=O)[C@H](Cc1ccc(OC)cc1)NC(=O)CC1CCN(CCCc2cccc(F)c2)CC1` [SR7-067]: the 50% inhibitory concentration (IC50) in the experiment on PC9luc cells was above 40000 nM; with PC9luc-OSIMR cells, above 40000 nM; on Yap1:Oct4 interaction it was 2560 nM; in the experiment with PC9-OSIMR cells (PC9-OSIMR, read-out: IC50 MTT), above 40000 nM; in the experiment with PC9 cells (PC9, read-out: IC50 MTT) it was above 40000 nM.
`C=CC(=O)Nc1cc(Nc2nccc(-c3cn(C)c4ccccc34)n2)c(OC)cc1N(C)CCN(C)C` [Osimertinib, reference compound]: the half-maximal inhibitory concentration (IC50) in the experiment on PC9luc cells (Homo sapiens, PC-9) was 16.1 nM; with PC9luc-OSIMR cells, 4930 nM; with PC9-OSIMR cells (Homo sapiens, PC-9, Osimertinib-resistant PC9 cells, read-out: IC50) it was 5200 nM; in the experiment on PC9-OSIMR cells (Homo sapiens, PC-9, PC9-OSIMR, read-out: IC50 MTT) it was 5250 nM; in the experiment with PC9 cells (Homo sapiens, PC-9, EGFR-mutant PC9 cells, read-out: IC50 for Osimertinib), 16 nM; with PC9 cells (Homo sapiens, PC-9, PC9, read-out: IC50 MTT), 16.2 nM. In the experiment on PC9-OSIMR cells (Osimertinib-resistant vs parental PC9 cells), the “fold reduction in sensitivity” value is 325 fold.
For `CCOc1ccc(CCCN2CCC(CC(=O)N[C@@H](Cc3cccc(OC)c3)C(=O)OC)CC2)cc1` [SR7-042], the half-inhibitory concentration (IC50) on Yap1:Oct4 interaction came out at 1400 nM.
For the molecule `COC(=O)[C@H](Cc1ccc(OCc2ccccc2)cc1)NC(=O)CC1CCN(CCCc2ccc(Cl)c(Cl)c2)CC1` [SR6-086], the IC50 at Yap1:Oct4 interaction was found to be 1850 ± 890 nM.
At Yap1:Oct4 interaction, `COC(=O)[C@H](Cc1cccc(OC)c1)NC(=O)CC1CCN(CCCc2ccc(Cl)c(Cl)c2)CC1` [SR7-045] came in with an IC50 of 1450 nM.
Regarding `COC(=O)[C@H](Cc1ccc(OCc2ccccc2)cc1)NC(=O)CC1CCN(CCCc2cccc(F)c2)CC1` [SR6-085], the 50% inhibitory concentration (IC50) at Yap1:Oct4 interaction is 750 ± 150 nM.
In turn, `O=C(CC1CCN(CCCc2cccc(F)c2)CC1)Nc1ccc(OCc2ccccc2)cc1` [SR7-057] displayed a 50% inhibitory concentration (IC50) at Yap1:Oct4 interaction of 707 nM.
On the same count and under the same terms, the result for `COC(=O)[C@H](Cc1ccc(OCc2ccccc2)cn1)NC(=O)CC1CCN(C(=O)CCc2ccc(Cl)c(Cl)c2)CC1` [SR6-095] reads 1010 ± 260 nM; that for `CCOc1ccc(CCCN2CCC(CC(=O)N[C@@H](Cc3ccc(OCc4ccccc4)cc3)C(=O)OC)CC2)cc1` [SR6-087], 510 ± 80 nM.
For the molecule `CCOc1ccc(CCCN2CCC(CC(=O)Nc3ccc(OCc4ccccc4)cc3)CC2)cc1` [SR7-052], the 50% inhibitory concentration (IC50) is 1270 nM in the experiment on PC9luc cells; 4030 nM in the experiment on PC9luc-OSIMR cells; 445 nM on Yap1:Oct4 interaction; 5470 nM in the experiment on PC9-OSIMR cells (PC9-OSIMR, read-out: IC50 MTT); 1230 nM with PC9 cells (PC9, read-out: IC50 MTT).
